Legend:
[1] = Mutagenicity in Saccharomyces cerevisiae D7 incubated for 3 hrs; type: toxicity
[2] = (§1) Cytotoxicity in Saccharomyces cerevisiae D7 incubated for 3 hrs; type: toxicity, organism-based; settings: Saccharomyces cerevisiae D7 cells
[3] = tested on: Saccharomyces cerevisiae; assay: as §1; type: toxicity, organism-based; settings: in vivo, 3 h

Question: Which Activity [1] does the source give for Cc1cc2c(cc1-c1cc(/C=C/C(=O)O)cnc1C)C(C)(C)CCC2(C)C here?
Answer: Non-toxic

Question: What about the CC50 at 3 h [2] of the same compound?
Answer: 825 µM

Question: Which Activity [1] does the source give for Cc1cc2c(cc1-n1c(C(F)(F)F)nc3cc(C(=O)O)ccc31)C(C)(C)CCC2(C)C here?
Answer: Non-toxic

Question: What about the CC50 at 3 h [2] of the same compound?
Answer: 193 µM

Question: Which Activity [1] does the source give for C=C(c1ccc(C(=O)O)cc1)c1cc2c(cc1C)C(C)(C)CCC2(C)C [BEXAROTENE] here?
Answer: Non-toxic

Question: What about the Activity [3] of the same compound?
Answer: Non-toxic

Question: Which results are given for Cc1cnc(/C=C/C(=O)O)cc1-c1cc2c(cc1C)C(C)(C)CCC2(C)C?
Answer: Activity [1]: Non-toxic; CC50 at 3 h [2]: 228 µM

Question: Which Activity [1] does the source give for Cc1cc2c(cc1-c1nc(/C=C/C(=O)O)ccc1C)C(C)(C)CCC2(C)C here?
Answer: Non-toxic

Question: What about the CC50 at 3 h [2] of the same compound?
Answer: 228 µM

Question: What does the source list for Cc1cc2c(cc1-c1cncc(/C=C/C(=O)O)c1)C(C)(C)CCC2(C)C?
Answer: Activity [1]: Non-toxic; CC50 at 3 h [2]: 440 µM
